The first experiment concerns the target PRMT5-MTA (Homo sapiens, UniProt O14744). The experiment in a line: Enzymatic inhibitory activity against PRMT5-MTA (AlphaScreen). Format: biochemical.
Settings: not given
As to the method: The AlphaScreen method was used to detect the enzymatic inhibitory activity of the compounds against PRMT5-MTA. 1 x Methyltransferase assay buffer IV (signalchem) was prepared as a solution for diluting each component for the enzymatic reaction. PRMT5/[…] protein of a final concentration of 1 nM, […] (sigma) of a final concentration of 1 uM and S-(5'-adenosine)-L-methionine chloride dihydrochloride (sigma) of a final concentration of 2.5 uM were mixed, then incubated for 30 minutes at room temperature, and transferred to an OptiPlate-384 well plate (PerkinElmer) at a volume of 6 uL per well, for which no PRMT5/[…] protein was added to the control wells. The test compound was 3-fold serially diluted into 10 concentrations, starting from a concentration of 1000 nM, and the series of diluted compounds were added to all wells except the control wells in the well plate using Tecan D300e. The well plate was subjected to centrifugation for 1 minute at 1000 rpm in a centrifuge, and then incubated for 15 minutes at 23°C. Histone H4 substrate of a final concentration of 5 nM was added to the well plate at 4 uL per well, centrifuged for 1 minute at 1000 rpm in a centrifuge, then placed in an incubator at 23°C and reacted for 45 minutes. Anti-histone H4 (symmetrical dimethyl R3) antibody (Abcam) was incubated with 50 ug/mL of AlphaScreen Protein A Acceptor beads (PerkinElmer) for 10 minutes at room temperature beforehand, and then added to the well plate at a volume of 10 uL per well. The mixture was reacted for 1 hour at room temperature. 50 Ug/mL of AlphaScreen Streptavidin Donor beads (PerkinElmer) was added at 10 uL per well, and reacted for 1 hour at room temperature. The signal values were detected for the well plate through the Alpha method using an Envision multifunctional microplate-reader, and the IC50 values for inhibition of the compounds on PRMT5/MET50 enzyme activity were calculated in Xlfit 5.0 software. Table 1. IC50 values for inhibition of the compounds on PRMT5+MTA enzyme activity
Chain of PRMT5-MTA (O14744 whole entry): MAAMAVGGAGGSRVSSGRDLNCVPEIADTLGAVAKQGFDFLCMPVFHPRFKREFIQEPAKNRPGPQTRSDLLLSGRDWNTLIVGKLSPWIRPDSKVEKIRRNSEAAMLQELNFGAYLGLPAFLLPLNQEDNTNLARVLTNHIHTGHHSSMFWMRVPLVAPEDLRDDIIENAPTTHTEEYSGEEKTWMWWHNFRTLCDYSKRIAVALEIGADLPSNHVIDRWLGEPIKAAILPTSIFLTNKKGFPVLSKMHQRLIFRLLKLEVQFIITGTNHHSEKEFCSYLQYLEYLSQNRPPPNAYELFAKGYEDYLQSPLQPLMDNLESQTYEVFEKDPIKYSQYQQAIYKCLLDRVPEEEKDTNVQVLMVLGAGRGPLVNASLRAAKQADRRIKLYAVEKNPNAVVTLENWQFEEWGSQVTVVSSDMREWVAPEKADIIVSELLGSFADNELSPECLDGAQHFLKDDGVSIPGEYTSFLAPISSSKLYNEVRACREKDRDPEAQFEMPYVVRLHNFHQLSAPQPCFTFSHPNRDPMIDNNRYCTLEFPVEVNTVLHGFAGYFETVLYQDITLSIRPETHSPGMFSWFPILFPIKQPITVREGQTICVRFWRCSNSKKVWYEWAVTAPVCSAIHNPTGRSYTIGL
Chain of PRMT5-MTA (Q9BQA1 whole entry partner): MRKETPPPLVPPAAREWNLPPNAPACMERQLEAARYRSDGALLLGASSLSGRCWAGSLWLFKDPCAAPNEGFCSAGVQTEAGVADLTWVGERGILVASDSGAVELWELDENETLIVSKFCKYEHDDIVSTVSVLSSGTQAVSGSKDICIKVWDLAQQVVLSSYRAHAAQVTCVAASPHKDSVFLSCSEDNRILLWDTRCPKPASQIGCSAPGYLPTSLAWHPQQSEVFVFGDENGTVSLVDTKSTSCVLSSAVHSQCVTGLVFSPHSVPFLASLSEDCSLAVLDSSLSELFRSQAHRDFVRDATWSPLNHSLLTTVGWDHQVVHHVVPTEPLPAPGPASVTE
Regarding `Cc1cc2nc(N)c3cnn(C)c3c2cc1C(=O)N(C)N1c2ccccc2CC1C` (stereo not drawn) [Example 280], the IC50 – broadly, the midpoint of a concentration-inhibition curve – came out at 4 nM.

The experiment is the same for the next values; noted with them: read-out: IC50.
Consider `Cc1cc2cc(C(=O)N(Cc3ccc(-c4scnc4C)cn3)N(c3nccc4nccnc34)C3CC3)ccc2nc1N` [Example 165, 2-amino-N'-cyclopropyl-3-methyl-N-((5-(4-methylthiazol-5-yl)pyridin-2-yl)methy 1)-N'-(pyrido[3,4-b]pyrazin-5-yl)quinoline-6-carbohydrazide], for which the IC50 stood at 3.3 nM. The same measure, in the same setting: for `CN(C(=O)c1ccc2nc(N)c3c(c2c1)COC3)N(C)c1ccc(C(F)(F)F)cn1` [Example 55, 4-amino-N,N'-dimethyl-N'-(5-(trifluoromethyl)pyridin-2-yl)-1,3-dihydrofuro[3,4-c]quinoline-8-carbohydrazide] the value was 4.6 nM; for `Cc1cc2nc(N)c3c(cnn3C)c2cc1C(=O)N1CC(C)CN1c1ncccc1F` (stereo not drawn) [Example 504, (4-amino-3,7-dimethyl-3H-pyrazolo[3,4-c]quinolin-8-yl)(2-(3-fluoropyridin-2-yl)-4-methylpyrazolidin-1-yl)methanone], 8.6 nM; for `Cc1ncsc1-c1ccc(CN(C(=O)c2ccc3nc(N)c(CF)cc3c2)N(c2ncccn2)C2CC2)nc1` [Compound 324, 2-amino-N'-cyclopropyl-3-(fluoromethyl) -N-((5-(4-methylthiazol-5-yl)pyridin-2-yl)methyl)-N'-(pyrimidin-2-yl)quinoline-6-carbohydrazide], 4.4 nM. As to `Cc1ncsc1-c1ccc(CN(C(=O)c2cc3c(cc2F)nc(N)c2cnn(C)c23)N(c2ncccn2)C2CC2)nc1` [Example 253, 4-amino-N'-cyclopropyl-7-fluoro-1-methyl-N-((5-(4-methylthiazol-5-yl)pyridin-2-yl)methyl)-N'-(pyrimidin-2-yl)-1H-pyraz olo[4,3-c]quinoline-8-carbohydrazide], the IC50 was determined as 6.1 nM. Still for that read-out and setting: for `Cc1cc2nc(N)c3cnn(C)c3c2cc1C(=O)N1CCCN1c1nccc2nccnc12` [Example 331, (4-amino-1,7-dimethyl-1H-pyrazolo[4,3-c]quinolin-8-yl)(2-(pyrido[3,4-b]pyrazin-5-yl)pyrazolidin-1-yl)methanone] the value was 2.1 nM; for `Cc1cc2cc(C(=O)N(Cc3ccc(C(C)(C)O)cn3)N(C)c3ncccn3)ccc2nc1N` [Example 290, 2-amino-N-((5-(2-hydroxyprop-2-yl)pyridin-2-yl)methyl)-N',3-dimethyl-N'-(pyrimidin-2-yl)quinoline-6-carbohydrazide], 3.7 nM; for `Cc1cc2cc(C(=O)N(Cc3ccc(C4=CCNCC4)cn3)N(C)c3ncccn3)ccc2nc1N` [Example 262, 2-amino-N',3-dimethyl-N'-(pyrimidin-2-yl)-N-((1',2',3',6'-tetrahydro-[3,4'-bipyridine]-6-yl)methyl)quinoline-6-carbohydrazide], 8.6 nM.

For `Cc1cc2nc(N)c3cnn(C)c3c2cc1C(=O)N1CC(c2ccccc2)CN1c1ncccc1F` (stereo not drawn) [Example 409, (4-amino-1,7-dimethyl-1H-pyrazolo[4,3-c]quinolin-8-yl)(2-(3-fluoropyridin-2-yl)-4-phenylpyrazolidin-1-yl)methanone], the IC50 is 3.1 nM. Regarding `Cc1cc2cc(C(=O)N(Cc3ccc(C(F)(F)F)cn3)N(C)c3ncc(C(F)(F)F)cn3)ccc2nc1N` [Example 77, 2-amino-N',3-dimethyl-N-((5-(trifluoromethyl)pyridin-2-yl)methyl)-N'-(5-(trifluor omethyl)pyrimidin-2-yl)quinoline-6-carbohydrazide], the IC50 was found to be 1.1 nM. Same read-out and setting: for `Cc1cc2nc(N)c3cnccc3c2cc1C(=O)N1CC(C)CN1c1ncccc1F` (stereo not drawn) [Example 506, (5-amino-8-methylbenzo[C] [2,7]naphthyridin-9-yl)(2-(3-fluoropyridin-2-yl)-4-methylpyrazolidin-1-yl)methanone] the value was 5.8 nM; for `Cc1cc2cc(C(=O)N3CC(C)CN3c3ncccc3F)c(F)cc2nc1N` (stereo not drawn) [Example 333, (2-amino-7-fluoro-3-methylquinolin-6-yl)(2-(3-fluoropyridin-2-yl)-4-methylpyrazolidin-1-yl)methanone], 7.7 nM. Regarding `Cc1cc2cc(C(=O)N(Cc3ccc(C4(O)COC4)cn3)N(C)c3ncccn3)ccc2nc1N` [Example 285, 2-amino-N-((5-(3-hydroxyoxetan-3-yl)pyridin-2-yl)methyl)-N',3-dimethyl-N'-(pyrimidin-2-yl)quinoline-6-carbohydrazide], the IC50 stood at 2 nM.

On to `CC1CN(C(=O)c2cc3c4c(c(N)nc3cn2)COC4)N(c2ncccc2F)C1` (stereo not drawn) [Example 511, (4-amino-1,3-dihydrofuro[3,4-c][1,7]naphthyridin-8-yl)(2-(3-fluoropyridin-2-yl)-4-methylpyrazolidin-1-yl)methanone], for which the IC50 was 6.1 nM.

For the molecule `Cc1cc2cc(C(=O)N(Cc3cccc(C(F)(F)F)n3)N(C)c3ncccn3)ccc2nc1N` [Example 103, 2-amino-N',3-dimethyl-N'-(pyrimidin-2-yl)-N-((6-(trifluoromethyl)pyridin-2-yl)methyl)quinoline-6-carbohydrazide], the 50% inhibitory concentration (IC50) is 2.9 nM.

Consider `Cc1cc2cc(C(=O)N(Cc3ccc(C(F)(F)F)cn3)N(C)c3cc(C(F)(F)F)ccn3)ccc2nc1N` [Example 43, 2-amino-N',3-dimethyl-N'-(4-(trifluoromethyl)pyridin-2-yl)-N-((5-(trifluoromethyl)pyridin-2-yl)methyl)quinoline-6-carbohydrazide], for which the IC50 amounted to 3.8 nM. Still for that read-out and setting: the same measure for `Cc1cc2nc(N)c3cnn(C)c3c2cc1C(=O)N1CC(C)CN1c1ncccc1OC(F)(F)F` (stereo not drawn) [Example 334, (4-amino-1,7-dimethyl-1H-pyrazolo[4,3-c]quinolin-8-yl)(4-methyl-2-(3-(trifluoromethoxy)pyridin-2-yl)pyrazolidin-1-yl)m ethanone]: 9.2 nM; for `Cc1cc2nc(N)c3cnn(C)c3c2cc1C(=O)N1CC(C)CN1c1ncccc1C` (stereo not drawn) [Example 380, (4-amino-1,7-dimethyl-1H-pyrazolo[4,3-c]quinolin-8-yl)(4-methyl-2-(3-methylpyridin-2-yl)pyrazolidin-1-yl)methanone]: 3.4 nM; for `Cc1cc2cc(C(=O)N(Cc3ccc(-c4cnn(C(F)(F)F)c4)cn3)Nc3ncccn3)ccc2nc1N` [Example 249, 2-amino-3-methyl-N'-(pyrimidin-2-yl)-N-((5-(1-(trifluoromethyl)-1H-pyrazol-4-yl)pyridin-2-yl)methyl)quinoline-6-carbohy drazide]: 40 nM. Still for that read-out and setting: for `Cc1ncsc1-c1ccc(CN(C(=O)c2ccc3nc(N)c4cnn(C)c4c3c2)N(c2ncccn2)C2CC2)nc1` [Example 252, 4-amino-N'-cyclopropyl-1-methyl-N-((5-(4-methylthiazol-5-yl)pyridin-2-yl)methyl)-N'-(pyrimidin-2-yl)-1H-pyrazolo[4,3-c] quinoline-8-carbohydrazide] the value was 4.8 nM.

On to `CN(C(=O)c1cc2c(cc1F)nc(N)c1cnn(C)c12)N(C)c1ncc(C(F)(F)F)cc1F` [Example 37, 4-amino-7-fluoro-N'-(3-fluoro-5-(trifluor omethyl)pyridin-2-yl)-N,N',1-trimethyl-1 H-pyrazolo[4,3-c]quinoline-8-carbohydrazide], for which the IC50 turned out to be 3.5 nM. `CN(c1ccc(C(F)(F)F)cn1)N(CC(F)(F)F)C(=O)c1ccc2nc(N)c3c(c2c1)COC3` [Example 54, 4-amino-N'-methyl-N-(2,2,2-trifluoroethyl)-N'-(5-(trifluoromethyl)pyridin-2-yl)-1,3-dihydrofuro[3,4-c]quinoline-8-carbohydrazide]: the half-maximal inhibitory concentration (IC50) came out at 15.8 nM.

Consider `Cc1cc2cc(C(=O)N(Cc3ccc(C4CC4)cc3F)N(C)c3nccc4nccnc34)ccc2nc1N` [Example 167, 2-amino-N-(4-cyclopropyl-2-fluorobenzy 1)-N',3-dimethyl-N'-(pyrido[3,4-b]pyrazin-5-yl)quinoline-6-carbohydrazide], for which the concentration for half-maximal inhibition (IC50) came to 1.3 nM. On the same count and under the same terms, for `Cc1cc2nc(N)c3cnn(C)c3c2cc1C(=O)N1CCC(=O)N1c1ccc(C(F)(F)F)cn1` [Example 463, 1-(4-amino-1,7-dimethyl-1H-pyrazolo[4,3-c]quinoline-8-carbonyl)-2-(5-(trifluoromethyl)pyridin-2-yl)pyrazolidin-3-one] the value was 1.3 nM; for `Cc1cc2nc(N)c3cnn(C)c3c2cc1C(=O)N(Cc1ccc(-c2scnc2C)cn1)N(c1ncccn1)C1CC1` [Example 251, 4-amino-N'-cyclopropyl-1,7-dimethyl-N-((5-(4-methylthiazol-5-yl)pyridin-2-yl)methyl)-N'-(pyrimidin-2-yl)-1H-pyrazolo[4 ,3-c]quinoline-8-carbohydrazide], 4.1 nM.

For the molecule `Cc1cc2nc(N)c3cnn(C)c3c2cc1C(=O)N(Cc1ccc(C(F)(F)F)cn1)N(C)c1ncccn1` [Example 13, 4-amino-N',1,7-trimethyl-N'-(pyrimidin-2-yl)-N-((5-(trifluoromethyl)pyridin-2-yl)methyl)-1H-pyrazolo[4,3-c]quinoline-8-c arbohydrazide], the IC50 is 4 nM.

Values taken from patent EP4745134A1 (Jiangsu Yahong Meditech Co., Ltd., priority 2023, dated 2025).
